This is an account of results in patent publication US10874683B2, “N4-hydroxycytidine and derivatives and anti-viral uses related thereto” (Emory University, priority 2016, dated 2020).

Data set [1] is described as follows: Rodent pharmacokinetic experiment in DBA-1J mice. As to conditions: for concentration at 24 h: oral, read-out: 24 hr plasma levels. The data set is classed as in vivo. The protocol:
DBA-1J mice (6-8 weeks old, female) were acclimated for ≥2 days after receipt. Mice were weighed the day before dosing to calculate dosing volumes. Mice were dosed by oral gavage with drug at 30 mg/kg, 100 mg/kg & 300 mg/kg. The mice were sampled at […] time points: 0.5, 1, 2, 3, 4, 8 and 24 hrs (3 mice per time point for test drug). The mice were euthanized and their organs were collected (see below). In order to collected blood, mice with euthanized by CO2 at the appropriate time point listed above. Blood was obtained by cardiac puncture (0.3 ml) at each time point. Following blood collection, the organs were removed from the mice (see below). The blood was processed by inverting Li-Heparin tube with blood gently 2 or 3 times to mix well. The tubes were then placed in a rack in ice water until able to centrifuge (≤1 hour). As soon as practical, the blood was centrifuged at ˜2000×g for 10 min in a refrigerated centrifuge to obtain plasma. Then, using a 200 μL pipette, the plasma was transferred to a labeled 1.5 ml Eppendorf tube in ice water. The plasma was then frozen in freezer or on dry ice. The samples were stored at −80° C. prior to analysis. Organs were collected from euthanized mice. The organs (lungs, liver, kidney, spleen and heart) were removed, placed in a tube, and immediately frozen in liquid nitrogen. The tubes were then transferred to dry ice. The samples were saved in cryogenic tissue vials. Samples were analyzed by LC-MS/MS using an ABSCIEX 5500 QTRAP LC-MS/MS system with a Hypercarb (PGC) column.

For another data set, the system named is Ross River virus. In words: Vero cell cytopathic effect (CPE) model, Ross River virus. Type of data set: cell-based.
For the next data set, the system named is EEE virus. The data set is described as follows: organism not typed. Type of data set: cell-based. The note with it: Vero.
A further data set deals with WEE virus. In words: organism not typed. Type of data set: cell-based. As to conditions: Vero.
For the next data set, the system named is VEE virus. In words: organism not typed. Type of data set: cell-based. The note with it: Vero.
The next data set deals with CHIK virus. The data set is described as follows: organism not typed. The data set is classed as cell-based. The note with it: Vero.
The next data set deals with CEM cells. The data set is described as follows: Cytotoxicity profile, CEM cells. Type of data set: cell-based. The note with it: CEM cells (low of range).
The test system of another data set is Huh7 (liver) cells. The data set is described as follows: Cytotoxicity profile, Huh7 (liver) cells. The note with it: Huh7 (liver) cells (high of range). Type of data set: cell-based.
Data set [2] is described as follows: Toxicology after 6 day q.d. intraperitoneal injections in mice. Type of data set: in vivo. The source says: Alternatively, drug delivery by aerosol (nasal spray) administration may immediately achieve therapeutic levels of drug in the nasal mucosa and the brain.
The conditions of data set [3]: rat, in vivo, po, 50 mg/kg.
Data set [4] is described as follows: Rodent pharmacokinetic experiment in DBA-1J mice. The data set is classed as in vivo. The note with it: female, mouse, plasma, after IV dosing, read-out: plasma T1/2 (converted).
The test system of a further data set is pestivirus, hepacivirus. The note with it: Stuyver et al., Antimicrob Agents Chemother 2003; cited from earlier work.
A short description of a further data set: in vivo. As to conditions: male, SD, rat, po, 50 mg/kg.
The next data set concerns ZIKV. In words: ZIKV antiviral assay. Type of data set: cell-based. As to conditions: Zika virus, read-out: ZIKV (EC50 μM).
The nature of data set [5]: Cytotoxicity in Vero cells (ZIKV table). As to conditions: African green monkey.

Like-named read-outs stand apart in the source and are kept apart here.

Regarding `O=c1nc(NO)ccn1[C@@H]1O[C@H](CO)[C@H](O)C1O` (stereo in doubt) [EIDD-01931, 1-(3,4-dihydroxy-5-(hydroxymethyl)tetrahydrofuran-2-yl)-4-(hydroxyamino)pyrimidin-2-one], the “Bioavailability (versus I.P. delivery)” value is listed as 65% in data set [1] (30 mg/kg PO dosing); 39-46% in [1] (100 and 300 mg/kg PO dosing). The Cmax in data set [1] (female, DBA-1J, mouse, plasma, PO dosing 30 mg/kg) was found to be 3 ng/mL; in data set [1] (female, DBA-1J, mouse, plasma, PO dosing 100 mg/kg), 7.7 ng/mL; in data set [1] (female, DBA-1J, mouse, plasma, PO dosing 300 mg/kg) it was 11.7 ng/mL. In addition, the half-life was 4.1 to 4.7 h in data set [1] (female, DBA-1J, mouse, plasma, after PO dosing, read-out: plasma T1/2) and 2.2 h in [4]. Also, the Tmax in data set [1] (female, DBA-1J, mouse, plasma, after oral dosing) was 0.25 to 0.5 h. Further, the concentration at 24 h is ~100 nM in [1] (female, DBA-1J, mouse, plasma, after 100 mg/kg dose) and ~400 nM in [1] (female, DBA-1J, mouse, plasma, after 300 mg/kg P.O. dose). Further, the EC50 was determined as 2.45 µM in the data set with Ross River virus; 1.08 µM in the data set on EEE virus; 1.36 µM with WEE virus; 1 µM in the data set on VEE virus; 1.28 µM in the data set on CHIK virus. The results for the selectivity index with CEM cells and with Huh7 (liver) cells were 8 and 232, respectively. Besides, in [2] (100 mg/kg, 6 day q.d. IP, reversed on cessation of dosing), the “body weight effect at highest dose tested” value is recorded as “weight loss was observed”. The “NOEL (NO Effect Level)” value in data set [2] (6 day q.d. intraperitoneal (IP) injections) was found to be 33 mg/kg. Besides, the tissue distribution result in [3] was “well distributed into all tissues tested”. Further, the antiviral activity entry with pestivirus, hepacivirus is “antipestivirus and antihepacivirus activities”. In the data set “in vivo”, this compound displayed a bioavailability of 28%.

Turning to `O=c1nc(NO)ccn1[C@@H]1O[C@H](CO)[C@H](O)C1O` (stereo partly drawn) [drawing 106], in the data set with ZIKV, the EC50 stood at 4.02 µM. Also, the CC50 in data set [5] stood at 50.4 µM.
